The source of these data is patent US7700644B2, “Isoflavonoid dimers” (Novogen Research Pty Ltd, priority 2005, dated 2010).

For assay [1], the system named is ovarian cancer cell line CP70. The assay is described as follows: In vitro cytotoxicity, MTT proliferation assay, CP70. Conditions: Homo sapiens. The assay is classed as cell-based, human. The method, then: (§1) The human pancreatic cancer cell line, HPAC (CRL-2119) was routinely cultured in 1:1 mixture DMEM (Sigma) plus Ham's F12 (Sigma) medium containing HEPES (15 mM), insulin (0.002 mg/ml), transferrin (0.005 mg/ml), hydrocortisone, (40 ng/ml), epidermal growth factor (10 ng/ml). The ovarian cancer cell line CP70 was obtained as a gift from Dr. Gil Mor (Yale University) and cultured in a 1:1 mixture DMEM plus Ham's F12 medium, and SKOV-3 was purchased from ATCC and cultured in McCoy's 5a medium. The breast cancer cell line MDA-MB-468 cultured in Leibovitz's L-15 medium.
(§2) All cultures were supplemented with 10% FCS(CSL, Australia), penicillin (100 U/ml), streptomycin ([…]), L-glutamine (2 mM) and sodium bicarbonate (1.2 g/L), and cultured at 37° C. in a humidified atmosphere of 5% CO2. All remaining cell lines were purchased from ATCC (Maryland, USA) except where noted.
(§3) IC50 values were determined for each cell line. Cells were seeded in 96-well plates at an appropriate cell density as determined from growth kinetics analysis. NFFs were cultured for 5 days and RK-13s for 24 hrs in the absence and presence of the test compounds. Cell proliferation was assessed after the addition of 20 μl of 3-4,5 dimethylthiazol-2,5-diphenyl tetrazolium bromide (MTT, 2.5 mg/ml in PBS, Sigma) for 3-4 hrs at 37° C. according to manufacturer's instructions. IC50 values were calculated from semi-log plots of % of control proliferation on the y-axis against log dose on the x-axis.
(Tetrazolium dyes change colour on reduction, which living cells bring about.)

For assay [2], the system named is NCI-H460 (Lung). As to the kind of experiment: In vitro cytotoxicity, MTT proliferation assay, NCI-H460. The assay is classed as cell-based, human. Conditions: Homo sapiens. The method, then: as §1, §2, §3
Assay [3] has as its system A2780 (Ovarian). As to the kind of experiment: In vitro cytotoxicity, MTT proliferation assay, A2780. Conditions: Homo sapiens. The assay is classed as cell-based, human. The method, then:
as §1, §2, §3

The test system of assay [4] is MM200 (Melanoma). As to the kind of experiment: In vitro cytotoxicity, MTT proliferation assay, MM200. The assay is classed as cell-based, human. Conditions: Homo sapiens. The protocol:
as §1, §2, §3

In assay [5] the test system is MM96L (Melanoma). As to the kind of experiment: In vitro cytotoxicity, MTT proliferation assay, MM96L. The assay is classed as cell-based, human. Conditions: Homo sapiens. The protocol: as §1, §2, §3
For assay [6], the system named is breast cancer cell line MDA-MB-468. The assay is described as follows: In vitro cytotoxicity, MTT proliferation assay, MDA-MB-468. The assay is classed as cell-based, human. Conditions: Homo sapiens; Breast MDA-MB-468. The protocol:
as §1, §2, §3

For assay [7], the system named is RPMI-8226 (Leukemic). The assay is described as follows: In vitro cytotoxicity, MTT proliferation assay, RPMI-8226. The assay is classed as cell-based. Conditions: Homo sapiens; Leukemic RPMI-8226. The protocol: as §1, §2
IC50 values were determined for each cell line. Cells were seeded in 96-well plates at an appropriate cell density as determined from growth kinetics analysis. […] Cell proliferation was assessed after the addition of 20 μl of 3-4,5 dimethylthiazol-2,5-diphenyl tetrazolium bromide (MTT, 2.5 mg/ml in PBS, Sigma) for 3-4 hrs at 37° C. according to manufacturer's instructions. IC50 values were calculated from semi-log plots of % of control proliferation on the y-axis against log dose on the x-axis.

Assay [8] relates to MCF-7 (Breast). The assay is described as follows: In vitro cytotoxicity, MTT proliferation assay, MCF-7. The assay is classed as cell-based, human. The note with it: Homo sapiens, MCF7; Breast MCF-7. The protocol:
as §1, §2, §3

Assay [9] concerns HTB-138 (Glioma). As to the kind of experiment: In vitro cytotoxicity, MTT proliferation assay, HTB-138. The note with it: Homo sapiens; Glioma HTB-138. The assay is classed as cell-based, human. The protocol:
as §1, §2, §3

Assay [10] concerns UV irradiation-induced skin oedema. The assay is described as follows: Murine model of UV irradiation-induced skin oedema. The assay is classed as in vivo, female Skh:hr-1 albino mice. The note with it: for Change in skin thickness (mean ± SD, ×0.01 mm): dorsal skin fold, topical 0.2 ml of 20 μM at 30 min, 2 h, 4 h. The text has this: Groups of 4-5 female Skh:hr-1 albino mice were irradiated with 1×3 MEdD (minimal edematous dose) of solar simulated UV radiation (SSUV). Solar-simulated ultraviolet radiation (SSUV) was provided by a planar bank of 6 UVA tube (Hitachi 40W F40T 10/BL, black light) and one UVB tube (Philips TL 40W/12RS) with radiation filtered through a sheet of 0.125 mm cellulose acetate (Eastman Chemical Products, Kingport, Tenn., USA) to give 2.96×10-4W/cm2 UVA and 1.59×10-5W/cm2 UVB. The distance of the UV lamp from the irradiance table surface was approximately 20 cm and temperature was controlled with an electric fan. During irradiation, the cages were rotated below the lights to reduce the variation in radiation intensity in different positions.
Either test compound (0.2 ml of a 20 μM solution) or vehicle (propylene glycol/ethanol/water 1:2:1) was applied to the irradiated dorsal skin at 30 min, 2 h and 4 h post-irradiation. Dorsal skin fold measurements were made with a spring micrometer prior to and at 24 hr and 48 h post-UV exposure. The difference in skin thickness pre- and post-exposure to UVR was calculated for each mouse, and the differences examined between test compound and vehicle control were analysed using an unpaired two-tailed t test.

For assay [11], the system named is human pancreatic cancer cell line, HPAC (CRL-2119). The assay is described as follows: In vitro cytotoxicity, MTT proliferation assay, CRL-2119. The assay is classed as cell-based. The note with it: Homo sapiens, HPAC; Pancreatic CRL-2119. The protocol:
as §1, §2, §3

Assay [12] concerns ear swelling in mice induced by the topical application of arachidonic acid (AA). As to the kind of experiment: Murine ear inflammation induced by arachidonic acid. The assay is classed as in vivo, Female BALB/c mice. The method, then: Compound 2 was examined for its ability to inhibit ear swelling in mice induced by the topical application of arachidonic acid (AA). The inflammatory response due AA, the immediate precursor of the eicosanoids, is due to formation of AA metabolites via both the cyclooxygenase (COX) and lipoxygenase (LOX) pathways (Young et al. 1984). AA induces an early (10-15 min) increase in both PGE2 and LTC4 synthesis which precedes the increase in ear thickness (Opas et al. 1985; Chang et al. 1986).
Female BALB/c mice (ARC, WA, Australia), weighing 15-21 g were injected with Compound 2 delivered in polyethylene glycol (PEG) 400:phosphate buffered saline (PBS) 1:1 intraperitoneally (i/p) at a dose of 25 mg/kg 30 min prior to the application of AA being to the ears. Mice were anaesthetised using isoflurane and baseline thickness of both ears was measured using a spring micrometer. Each mouse received a total of […] of AA in ethanol (50 mg/ml) applied to the inner and outer surfaces of each pinna (i.e. 0.5 mg AA or 2 μg PMA per ear). […]
The difference in ear swelling pre- and post-application of AA for each ear was calculated, and the average for the two ears of each mouse calculated. The difference in mean swelling of each test group compared to the group given vehicle alone was calculated using a two-tailed unpaired t test (Prism 4, GraphPad Software).

Assay [13] relates to TNFα synthesis. As to the kind of experiment: TNFα synthesis in human monocytes incubated with LPS. The assay is classed as cell-based. Conditions: LPS 200 ng/mL, 18 hrs. The method, then: Human peripheral blood monocytes (from three separate individuals) were isolated from buffy coats by lymphoprep gradient separation of mononuclear cells followed by counter-current centrifugal elutriation (Demasi et al. 2000). The test compounds were dissolved in DMSO and added to fresh monocytes After 30 min, LPS was added to achieve a final concentration of 200 ng/mL. After incubation for 18 hrs at 37° C. in 5% CO2, supernatants were removed and PGE2, TXB2 (the stable hydrolysis product of TXA2) and TNFα production were measured by radioimmunoassay (RIA).

For the compound `COc1ccc(C23COc4c(ccc(O)c4C)C2C2c4ccc(O)c(C)c4OCC2c2cc(OC)c(OC)cc23)cc1OC` (centres unmarked) [Cpd. 2, 4,9-Dihydroxy-14,15-dimethoxy-12a-(3′,4′-dimethoxyphenyl)-3,10-dimethyl-2,11-dioxa-(1H,12H)-6b,6c,12a,16b-tetrahydronaphtho[1,2-g]chrysene], the IC50 in assay [1] worked out at 8.23 ± 3.73 µM; in assay [2], 11.3 ± 4.97 µM; in assay [3] it was 10.16 ± 0.07 µM; in assay [4], 6.5 µM; in assay [5], 6.8 µM; in assay [6], 8.59 ± 0.35 µM. Further, the IC50 in assay [7] was found to be 15.2 µM; in assay [8], 10.3 µM; in assay [9] it was 16.4 µM; in [11], 11.2 ± 4.7 µM. Further, the “inhibition of skin oedema” value in assay [10] (24 hrs post-irradiation) and in [10] (48 hrs post-irradiation) was “significantly inhibited” in each case. The “Change in skin thickness (mean ± SD, ×0.01 mm)” value came out at 36 ± 22 ×0.01 mm in assay [10] (24 hrs post-irradiation, vehicle 78 ± 23) and 105 ± 16 ×0.01 mm in [10] (48 hrs post-irradiation, vehicle 147 ± 37). Also, the “Change in ear thickness (mean ± SD, ×0.01 mm)” value in assay [12] (25 mg/kg i/p 30 min prior to AA, 1 hr post-AA, vehicle 14.5 ± 4.7) amounted to 5.1 ± 1.7 ×0.01 mm. Further, the “ear thickness compared with vehicle alone” value in assay [12] (25 mg/kg i/p, AA-induced) was “significant reduction”. Besides, the “effect on induction of TNFα” value in assay [13] is recorded as “inhibited”.

The IC50 is the point on the concentration scale where inhibition reaches its midpoint. Low readings indicate greater potency in that assay, high ones weaker potency in that assay.
